Measured values published in patent publication US9458172B2, “Pyridinyl and pyrimidinyl sulfoxide and sulfone derivatives” (priority 2012, dated 2016).
Read-outs that look alike come from different tables or passages of the source.

Columns and labels:
NAMPT = NAMPT (Homo sapiens (Human), UniProt P43490); experiment: Biochemical Inhibition Assay (NAMPT enzymatic reaction, NMN quantified by mass spectrometry); conditions: 33 nM recombinant His-tagged NAMPT, 1 μM NAM, 30 min at rt
Method: Assay 1: Biochemical Inhibition Assay
NAMPT protein purification. Recombinant His-tagged NAMPT was produced in E. coli cells, purified over a Ni column, and further purified over a size-exclusion column by XTAL Biostructures.
The NAMPT Enzymatic Reaction. The NAMPT enzymatic reactions were carried out in Buffer A (50 mM Hepes pH 7.5, 50 mM NaCl, 5 mM MgCl2, and 1 mM THP) in 96-well V-bottom plates. The compound titrations were performed in a separate dilution plate by serially diluting the compounds in DMSO to make a 100× stock. […] The compound and enzyme mixture was incubated for 15 min at rt, then 10 μL of 10× substrate and co-factors in Buffer A were added to the test well to make a final concentration of 1 μM NAM, […] 5-Phospho-D-ribose 1-diphosphate (PRPP), and 2.5 mM Adenosine 5′-triphosphate (ATP). The reaction was allowed to proceed for 30 min at rt, then was quenched with the addition of 11 μL of a solution of formic acid and L-Cystathionine to make a final concentration of 1% formic acid and 10 μM L-Cystathionine. Background and signal strength was determined by addition (or non-addition) of a serial dilution of NMN to a pre-quenched enzyme and cofactor mix.
Quantification of NMN. A mass spectrometry-based assay was used to measure the NAMPT reaction product, β-nicotinamide mononucleotide (NMN), and the internal control (L-Cystathionine). NMN and L-Cystathionine were detected using the services of Biocius Lifesciences with the RapidFire system. In short, the NMN and L-Cystathionine were bound to a graphitic carbon cartridge in 0.1% formic acid, eluted in 30% acetonitrile buffer, and injected into a Sciex 4000 mass spectrometer. The components of the sample were ionized with electrospray ionization and the positive ions were detected. […] The fragments are quantified and the analyzed by the following method.
Determination of IC50 Values. First, the NMN signal was normalized to the L-Cystathionine signal by dividing the NMN signal by the L-Cystathionine signal for each well. The signal from the background wells were averaged and subtracted from the test plates.

A2780 cells = experiment: In-Vitro Cell Proliferation Assay (SRB)
Method: Assay 2: In-Vitro Cell Proliferation Assay
Assay Method. […] The compounds were then further diluted to 10 OX final concentration in culture media, whereupon 20 μL of each dilution was added to the plated cells with controls (e.g. DMSO and blank) to make a final volume of 200 μL. The final DMSO concentration in each well was 0.1%. The plates were then incubated for 72 h at 37° C. in a 5% CO2 incubator. The number of viable cells was then assessed using sulforhodamine B (SRB) assay. Cells were fixed at 4° C. for 1 h with the addition of 50 μL 30% trichloroacetic acid (TCA) to make a final concentration of 6% TCA. The plates were washed four times with H2O and allowed to dry for at least 1 h, whereupon 100 μL of a 4% SRB in 1% acetic acid solution was added to each well and incubated at rt for at least 30 min. The plates were then washed three times with 1% acetic acid, dried, and treated with 100 μL of 10 mM Tris-Base solution. The plates were then read in a microplate reader at an absorbance of 570 nm. Background was generated on a separate plate with media only.
Determination of IC50 Values. First, the signals from the background plate were averaged, then the background was subtracted from the test plates.
The specificity of the compounds were determined via cell viability assay in the presence of the compound and either NAM or NMN Percent inhibitions were determined using the method given above.

[1] = Homo sapiens, A2780, 72 h, read-out: Cell Proliferation (IC50)
[2] = read-out: Cell Proliferation (IC50), A2780 cells, 72 h, sulforhodamine B
[3] = Homo sapiens, A2780, 72 h, read-out: Cell Proliferation (IC50), A2780 cells, 72 h, sulforhodamine B

Chain of NAMPT (P43490 whole entry): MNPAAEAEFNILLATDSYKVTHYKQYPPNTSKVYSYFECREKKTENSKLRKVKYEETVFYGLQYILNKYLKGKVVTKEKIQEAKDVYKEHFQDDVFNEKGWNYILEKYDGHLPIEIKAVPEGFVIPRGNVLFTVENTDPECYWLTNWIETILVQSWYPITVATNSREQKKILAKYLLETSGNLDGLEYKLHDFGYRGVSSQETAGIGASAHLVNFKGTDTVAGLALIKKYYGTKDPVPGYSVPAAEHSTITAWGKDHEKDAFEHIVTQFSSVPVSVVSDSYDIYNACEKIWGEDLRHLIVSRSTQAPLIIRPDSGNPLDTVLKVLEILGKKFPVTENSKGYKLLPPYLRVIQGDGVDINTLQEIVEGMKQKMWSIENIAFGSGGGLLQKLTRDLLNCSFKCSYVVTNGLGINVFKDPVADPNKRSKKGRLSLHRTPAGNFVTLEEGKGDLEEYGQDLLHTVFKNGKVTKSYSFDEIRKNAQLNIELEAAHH

| Structure (SMILES) | IC50 (NAMPT) | IC50 (A2780 cells; [3]) | other results |
| --- | --- | --- | --- |
| O=C(NCc1ccc([S+]([O-])c2cc(F)cc(F)c2)cn1)c1cc2cnccc2[nH]1 (racemic) [Example 9, 1H-Pyrrolo[3,2-c]pyridine-2-carboxylic acid [5-(3,5-difluoro-benzenesulfinyl)-pyridin-2-ylmethyl]-amide (racemic)] | 55.3 nM |  | IC50 (A2780 cells; [1]): 209 nM |
| O=C(NCc1ccc([S+]([O-])c2cc(F)cc(F)c2)cn1)c1ccc2nccn2c1 (racemic) [Example 14, Imidazo[1,2-a]pyridine-6-carboxylic acid [5-(3,5-difluoro-benzenesulfinyl)-pyridin-2-ylmethyl)-amide (racemic)] | 36.5 nM |  | IC50 (A2780 cells; [2]): 51.3 nM |
| O=C(NCc1ccc([S+]([O-])c2cc(F)cc(F)c2)cn1)c1cnc2[nH]ncc2c1 (racemic) [Example 15, 1H-Pyrazolo[3,4-b]pyridine-5-carboxylic acid [5-(3,5-difluoro-benzenesulfinyl)-pyridin-2-ylmethyl]-amide (racemic)] | 357 nM |  | IC50 (A2780 cells; [1]): 309 nM |
| O=C(NCc1ccc([S+]([O-])c2cc(F)cc(F)c2)cn1)c1cnc2nccn2c1 (racemic) [Example 24, Imidazo[1,2-a]pyrimidine-6-carboxylic acid [5-(3,5-difluoro-benzenesulfinyl)-pyridin-2-ylmethyl]-amide (racemic)] | 16.2 nM |  | IC50 (A2780 cells; [1]): 275 nM |
| O=C(NCc1ccc([S+]([O-])c2cc(F)cc(F)c2)cn1)c1ccc2nccn2c1 (racemic) [Example 55, Imidazo[1,2-a]pyridine-6-carboxylic acid [5-(3,5-difluoro-benzenesulfinyl)-pyridin-2-ylmethyl]-amide (racemic)] | 15.9 nM |  | IC50 (A2780 cells; [2]): 41.9 nM |
| O=C(NCc1ccc([S+]([O-])c2cc(F)cc(F)c2)cn1)c1ccc2nccn2c1 (racemic) [Example 58, Imidazo[1,2-a]pyridine-6-carboxylic acid [5-(3,5-difluoro-benzenesulfinyl)-pyridin-2-ylmethyl]-amide (racemic)] | 407 nM |  | IC50 (A2780 cells; [2]): 959 nM |
| O=C(NCc1ccc([S+]([O-])c2cccc(C(F)(F)F)c2)cn1)c1cc2ccncc2o1 (racemic) [Example 87, Furo[2,3-c]pyridine-2-carboxylic acid [5-(3-trifluoromethyl-benzenesulfinyl)-pyridin-2-ylmethyl]-amide (racemic)] | 17.7 nM |  | IC50 (A2780 cells; [1]): 15.2 nM |
| O=C(NCc1ccc([S+]([O-])c2cccc(OC(F)(F)F)c2)cn1)N1Cc2ccncc2C1 (racemic) [Example 89, 1,3-Dihydro-pyrrolo[3,4-c]pyridine-2-carboxylic acid [5-(3-trifluoromethoxy-benzenesulfinyl)-pyridin-2-ylmethyl]-amide (racemic)] | 8 nM |  | IC50 (A2780 cells; [1]): 18.6 nM |
| O=C(NCc1ccc(S(=O)(=O)c2cc(F)cc(F)c2)cn1)c1cc2ccncc2o1 [Example 5, Furo[2,3-c]pyridine-2-carboxylic acid [5-(3,5-difluoro-benzenesulfonyl)-pyridin-2-ylmethyl]-amide] |  | 5.2 nM |  |
| O=C(NCc1ncc(S(=O)(=O)c2ccccc2)cn1)c1cc2ccncc2o1 [Example 11, Furo[2,3-c]pyridine-2-carboxylic acid (5-benzenesulfonyl-pyrimidin-2-ylmethyl)-amide] |  |  | IC50 (A2780 cells; [1]): 314 nM |
| O=C(NCc1ccc(S(=O)(=O)c2cccc(OC(F)(F)F)c2)cn1)c1cnc2[nH]ncc2c1 [Example 19, 1H-Pyrazolo[3,4-b]pyridine-5-carboxylic acid [5-(3-trifluoromethoxy-benzenesulfonyl)-pyridin-2-ylmethyl]-amide] |  | 28.3 nM |  |
| O=C(NCc1ccc(S(=O)(=O)c2cccc(OC(F)(F)F)c2)cn1)c1cc2cnccc2[nH]1 [Example 21, 1H-Pyrrolo[3,2-c]pyridine-2-carboxylic acid [5-(3-trifluoromethoxy-benzenesulfonyl)-pyridin-2-ylmethyl]-amide] |  | 10.2 nM |  |
| O=C(NCc1ccc(S(=O)(=O)c2cccc(C(F)(F)F)c2)cn1)c1cc2ccncc2o1 [Example 22, Furo[2,3-c]pyridine-2-carboxylic acid [5-(3-trifluoromethyl-benzenesulfonyl)-pyridin-2-ylmethyl]-amide] |  | 5.4 nM |  |
| CCCn1cc(S(=O)(=O)c2ccc(CNC(=O)c3cc4ccncc4o3)nc2)cn1 [Example 61, Furo[2,3-c]pyridine-2-carboxylic acid [5-(1-propyl-1H-pyrazole-4-sulfonyl)-pyridin-2-ylmethyl]-amide] |  |  | IC50 (A2780 cells; [1]): 5.3 nM |
| CC(C)n1cc(S(=O)(=O)c2ccc(CNC(=O)c3cc4ccncc4o3)nc2)cn1 [Example 62, Furo[2,3-c]pyridine-2-carboxylic acid [5-(1-isopropyl-1H-pyrazole-4-sulfonyl)-pyridin-2-ylmethyl]-amide] |  | 11.6 nM |  |
| O=C(NCc1ccc(S(=O)(=O)c2cc(F)cc(N3CCOCC3)c2)cn1)c1cc2ccncc2o1 [Example 88, Furo[2,3-c]pyridine-2-carboxylic acid [5-(3-fluoro-5-morpholin-4-yl-benzenesulfonyl)-pyridin-2-ylmethyl]-amide] |  | 2 nM |  |
| O=C(NCc1ccc(S(=O)(=O)c2ccc(N3CCOCC3)cc2)cn1)N1Cc2ccncc2C1 [Example 97, 1,3-Dihydro-pyrrolo[3,4-c]pyridine-2-carboxylic acid [5-(4-morpholin-4-yl-benzenesulfonyl)-pyridin-2-ylmethyl]-amide] |  | 4.23 nM |  |
| O=C(NCc1ccc(S(=O)(=O)C2CCN(C3COC3)CC2)cn1)c1cc2ccncc2o1 [Example 103, Furo[2,3-c]pyridine-2-carboxylic acid [5-(1-oxetan-3-yl-piperidine-4-sulfonyl)-pyridin-2-ylmethyl]-amide] |  | 38.9 nM |  |
| O=C(NCc1ccc(S(=O)(=O)C2CCN(C3CCOCC3)CC2)cn1)c1cc2ccncc2o1 [Example 105, Furo[2,3-c]pyridine-2-carboxylic acid {5-[1-(tetrahydro-pyran-4-yl)-piperidine-4-sulfonyl]-pyridin-2-ylmethyl)-amide] |  | 28.6 nM |  |
| CN1CCN(c2ccc(S(=O)(=O)c3ccc(CNC(=O)c4cc5ccncc5o4)nc3)cn2)CC1 [Example 113, N-[[5-[[6-(4-methylpiperazin-1-yl)-1-pyridyl]sulfonyl]-2-pyridyl]methyl]furo[2,3-c]pyridine-2-carboxamide] |  |  | IC50 (A2780 cells; [2]): 0.488 nM |
| CCCn1cc(S(=O)(=O)c2ccc(CNC(=O)N3Cc4ccncc4C3)nc2)cn1 [Example 140, N-[[5-(1-propylpyrazol-4-yl)sulfonyl-2-pyridyl]methyl]-1,3-dihydropyrrolo[3,4-c]pyridine-2-carboxamide] |  | 37.2 nM |  |
| COc1cc(F)cc(S(=O)(=O)c2ccc(CNC(=O)c3cnc4[nH]ncc4c3)nc2)c1 [Example 144, N-[[5-(3-fluoro-5-methoxy-phenyl)sulfonyl-2-pyridyl]methyl]-1H-pyrazolo[3,4-b]pyridine-5-carboxamide] |  | 41.5 nM |  |
| CCN(C)c1ncc(S(=O)(=O)c2ccc(CNC(=O)c3cc4ccncc4o3)nc2)s1 [Example 146, N-[[5-[2-[ethyl(methyl)amino]thiazol-5-yl]sulfonyl-2-pyridyl]methyl]furo[2,3-c]pyridine-2-carboxamide] |  | 3.03 nM |  |
| CCn1cc(S(=O)(=O)c2ccc(CNC(=O)c3cc4ccncc4o3)nc2)cn1 [Example 176, N-[[5-(l-ethylpyrazol-4-yl)sulfonyl-2-pyridyl]methyl]furo[2,3-c]pyridine-2-carboxamide] |  | 58.8 nM |  |
